Laboratory results as given in patent US20200317636A1, “DEUTERATED AZOLE COMPOUNDS AND PREPARATION METHOD THEREFOR AND USES THEREOF” (priority 2017, published 2020).
In brackets after ≈: the same amount, converted by molar mass. Like-named read-outs stand apart in the source and are kept apart here.

What was measured:
[1] = test system: Candida albicans (standard strain SC5314); assay: In vitro bacteriostatic experiment (minimum in vitro antifungal concentration, MIC80); assay type: cell-based
Description: (I) Experimental method: The conventional in vitro bacteriostatic experiment method was adopted (for details, see: Antimicrob Agents Chemother 1995, 39 (5): 1169).
The fungal strain selected for this experiment was provided by the Fungal Department of Shanghai Changzheng Hospital (or purchased from the Institute of Materia Medica, Chinese Academy of Sciences).
Candida albicans (standard strain SC5314)
Preparation of bacterial suspension: The above fungi were cultured in YEPD liquid medium at 35° C. for 16 hours, activated twice, counted with a blood cell counting plate, and the bacteria concentration was adjusted to 1*10^4 to 1*10^5 cells/mL with RPM1640 liquid medium.
Preparation of drug solution: The test compound of the invention was dissolved in dimethyl sulfoxide to prepare a 0.8 mg/mL drug storage solution, and the 0.8 mg/mL drug storage solution was diluted to 8 μg/mL with RPM1640 before the experiment.
Inoculation: RPM1640 100 μL was added as a blank control in well 1 of the 96-well plate; 100 μL of the bacterial suspension was added in each of wells 3-12, 200 μL of the bacterial suspension and 2 μL of the drug solution were added in well 2 and the drug solution in wells 2-11 was diluted […], and the drug concentrations of these wells were 8, 4, 2, 1, 0.5, 0.25, 0.125, 0.0625, 0.0313, and 0.0156 μg/mL, respectively. No drug solution was added in well 12 to make positive control. The drug control was fluconazole.

[2] = in vitro; details: human, microsomes
[3] = human, microsomes
[4] = Candida albicans, SC5314, read-out: Minimum in vitro antifungal concentration (MIC80)

## [2H]C(Oc1ccc(C#Cc2ccc(C(F)(F)[C@](O)(Cn3cnnn3)c3ccc(F)cc3F)nc2)cc1)c1ccc(C#N)cc1 (stereo partly drawn) [Compound D1]
[1]; [4]
  MIC80: 0.0156 µg/mL (≈ 0.0266 µM)

## [2H]C([2H])(Oc1ccc(C#Cc2ccc(C(F)(F)[C@](O)(Cn3cnnn3)c3ccc(F)cc3F)nc2)cc1)c1ccc(C#N)cc1 [Compound D2]
[1]; [4]
  MIC80: 0.0156 µg/mL (≈ 0.0266 µM)

## [2H]C([2H])(n1cnnn1)C(O)(c1ccc(F)cc1F)C(F)(F)c1ccc(C#Cc2ccc(OCc3ccc(C#N)cc3)cc2)cn1 (stereo not drawn) [Compound D3]
[1]; [4]
  MIC80: 0.0313 µg/mL (≈ 0.0534 µM)

## [2H]c1nnnn1CC(O)(c1ccc(F)cc1F)C(F)(F)c1ccc(C#Cc2ccc(OCc3ccc(C#N)cc3)cc2)cn1 (stereo not drawn) [Compound D5]
[1]; [4]
  MIC80: 0.0156 µg/mL (≈ 0.0266 µM)

## OC(Cn1cncn1)(Cn1cncn1)c1ccc(F)cc1F [Fluconazole]
[1]; Candida albicans SC5314, RPM1640 medium, 96-well dilution 8-0.0156 μg/mL, read-out: Minimum in vitro antifungal concentration (MIC80)
  MIC80: 0.5 µg/mL (≈ 1.63 µM)

## Cc1ncc2n1-c1ccc(Cl)cc1C(c1ccccc1F)=NC2 [Midazolam]
[2]
  half-life: 0.212 h
[3]
  CLint, microsome (in vitro intrinsic clearance): 274 μL × min^−1 × mg^−1 proteins
  k (clearance constant): 0.0548 min⁻¹

## N#Cc1ccc(COc2ccc(C#Cc3ccc(C(F)(F)[C@](O)(Cn4cnnn4)c4ccc(F)cc4F)nc3)cc2)cc1 [VT-1598]
[2]
  half-life at 1 μM: 2.33 h
[1]; [4]
  MIC80: 0.0156 µg/mL (≈ 0.0267 µM)
[3]
  CLint, microsome (in vitro intrinsic clearance): 10.6 μL × min^−1 × mg^−1 proteins
  k (clearance constant): 0.0053 min⁻¹
